Data published in patent US4241087A, “Dysmenorrhea treatment” (William H. Rorer, Inc., priority 1979, dated 1980).

Experiments:
Assay type in all cases: cell-based
[1] = tested on: Ach induced contractions in the isolated gravid rat uterus; assay: Ach induced contractions, isolated gravid rat uterus (isometric, non-cumulative dose response); details: for inhibition at 160 µg/mL / inhibition at 40 µg/mL / inhibition at 80 µg/mL: Rattus norvegicus; for inhibition at 40 µg/mL: compound 40 μg/ml; for inhibition at 80 µg/mL: compound 80 μg/ml
Method: (§1) Female virgin Wistar rats at an average weight of 160 g to 220 g are used for the experiment. Prior to the experiment, the animals are housed five per group and maintained according to standard animal husbandry procedures. The animals are treated with DES (100 mg/kg/body weight) 24 hours prior to the experiment.
(§2) The stage of the estrus cycle is determined by vaginal smears on the morning of the experiment. Rats in estrus are killed by a blow on the head and the abdomen is opened. The two horns of the uterus are dissected out and transferred to a dish containing Bathing's solution (composition in g: NaCL, 8.046; KCl, 0.20; CaCl2.2H2 O, 0.132; MgCl2.6H2 O, 0.106; NaHCO3, 1.0; NaH2 PO4, 0.065; Dextrose, 1.0 distilled to 1 liter with distilled water). The two horns are separated and freed from mesentery in Bathing's solution. A thread is attached at each end of each horn and the uterine segment is mounted in a tissue bath (50 ml), maintained at 37° C. by a circulatory bath and aerated with 95% O2 5% CO2. One thread is attached to a fixed pin and the other to a transducer. Contractions are recorded isometrically on a Beckman dynograph in conjunction with a Grass force-displacement transducer (FTO3C) of which has been calibrated in g. tension, or isotonically in conjunction with a Harvard smooth muscle transducer (386). The tissue is subjected to a baseline tension of 0.5 g. The preparation is allowed to equilibrate for 30 minutes prior to the experiment.
(§3) Various spasmogens (such as: acetylcholine chloride, PGF2a, PGE2, oxytocin, BaCl2 or ergonivine maleate) may be used to induce contractions in the isolated uterine strip. See "In Vitro Methodology for Evaluation of Compound Effect on Isolated Guinea Pig Ileum" for description of obtaining dose response curve. Afer the control dose-response curve is obtained, the tissue is allowed to relax for five minutes before the addition of the spasmolytic drug (inhibitory drug). The test drug is in contact with the tissue for two minutes before the dose-response curve is repeated. The inhibitory effect of the test drug is determined as follows: [formula]
(§4) The % maximum response is calculated for each dose of the dose-response curve and the control and drug curves are plotted.
(§5) The dose-response behavior on the isolated gravid rat uterus of Acetylcholine chloride, Oxytocin and PGF2a was compared in the presence and absence of varying doses of 1-(2',6'-dimethylphenyl)-3-methylamidinourea hydrochloride using the non-cumulative dose response method.

[2] = tested on: Oxytocin induced contractions in the isolated gravid rat uterus; assay: Oxytocin induced contractions, isolated gravid rat uterus (isometric, non-cumulative dose response); details: for inhibition at 40 µg/mL / inhibition at 80 µg/mL / inhibition at 160 µg/mL: Rattus norvegicus; for inhibition at 40 µg/mL: compound 40 μg/ml; for inhibition at 80 µg/mL: compound 80 μg/ml; for inhibition at 160 µg/mL: compound 160 μg/ml
Method: as §1, §2, §3, §4, §5

[3] = tested on: PGF2α induced contractions in the isolated gravid rat uterus; assay: PGF2α induced contractions, isolated gravid rat uterus (isometric, non-cumulative dose response); details: for inhibition at 40 µg/mL / inhibition at 80 µg/mL / inhibition at 160 µg/mL: Rattus norvegicus; for inhibition at 40 µg/mL: compound 40 μg/ml; for inhibition at 80 µg/mL: compound 80 μg/ml; for inhibition at 160 µg/mL: compound 160 μg/ml
Method: as §1, §2, §3, §4, §5

[4] = increasing doses of compound, in vitro gravid rat uterus

## CNC(=N)NC(=O)Nc1c(C)cccc1C.Cl [1-(2',6'-dimethylphenyl)-3-methylamidinourea hydrochloride]
[1]; ACH-2, compound 160 μg/ml, Ach 2,560 μg/ml
  inhibition at 160 µg/mL: 67.4%
[1]; Ach 20 μg/ml
  inhibition at 40 µg/mL: 100%
  inhibition at 80 µg/mL: 100%
[1]; Ach 40 μg/ml
  inhibition at 40 µg/mL: 83%
  inhibition at 80 µg/mL: 100%
[1]; Ach 80 μg/ml
  inhibition at 40 µg/mL: 79.7%
  inhibition at 80 µg/mL: 100%
[1]; Ach 160 μg/ml
  inhibition at 40 µg/mL: 46.8%
  inhibition at 80 µg/mL: 95.8%
[1]; Ach 320 μg/ml
  inhibition at 40 µg/mL: 2.8%
  inhibition at 80 µg/mL: 26.8%
[1]; Ach 640 μg/ml
  inhibition at 40 µg/mL: < 2.8%
  inhibition at 80 µg/mL: < 26.8%
[1]; compound 160 μg/ml, Ach 20 μg/ml
  inhibition at 160 µg/mL: 100%
[1]; compound 160 μg/ml, Ach 40 μg/ml
  inhibition at 160 µg/mL: 100%
[1]; compound 160 μg/ml, Ach 80 μg/ml
  inhibition at 160 µg/mL: 100%
[1]; compound 160 μg/ml, Ach 160 μg/ml
  inhibition at 160 µg/mL: 100%
[1]; compound 160 μg/ml, Ach 320 μg/ml
  inhibition at 160 µg/mL: 93.3%
[1]; compound 160 μg/ml, Ach 640 μg/ml
  inhibition at 160 µg/mL: 93.6%
[1]; compound 160 μg/ml, Ach 1,280 μg/ml
  inhibition at 160 µg/mL: 84.6%
[1]; compound 160 μg/ml, Ach 5,120 μg/ml
  inhibition at 160 µg/mL: 61.2%
[1]; compound 160 μg/ml, Ach 10,240 μg/ml
  inhibition at 160 µg/mL: 62.7%
[1]; [4]
  inhibition of Acetylcholine chloride induced contractions (in words): dose dependent
[2]; Oxytocin 1 × 10^-4 U/ml
  inhibition at 40 µg/mL: < 22.1%
  inhibition at 80 µg/mL: 14.4%
  inhibition at 160 µg/mL: 100%
[2]; Oxytocin 1 × 10^-5 U/ml
  inhibition at 40 µg/mL: 100%
  inhibition at 80 µg/mL: 100%
  inhibition at 160 µg/mL: 100%
[2]; Oxytocin 3 × 10^-5 U/ml
  inhibition at 40 µg/mL: 22.1%
  inhibition at 80 µg/mL: 48.7%
  inhibition at 160 µg/mL: 100%
[2]; Oxytocin 3 × 10^-4 U/ml
  inhibition at 80 µg/mL: < 14.4%
  inhibition at 160 µg/mL: 63.2%
[2]; Oxytocin 1 × 10^-3 U/ml
  inhibition at 160 µg/mL: 47.6%
[2]; Oxytocin 3 × 10^-3 U/ml
  inhibition at 160 µg/mL: 32.5%
[2]; [4]
  inhibition of Oxytocin induced contractions (in words): dose dependent
[3]; PGF2α 1 × 10^-7 M
  inhibition at 40 µg/mL: 39.5%
  inhibition at 80 µg/mL: 64%
  inhibition at 160 µg/mL: 98.5%
[3]; PGF2α 1 × 10^-8 M
  inhibition at 40 µg/mL: 99%
  inhibition at 80 µg/mL: 98.2%
  inhibition at 160 µg/mL: 100%
[3]; PGF2α 3 × 10^-7 M
  inhibition at 40 µg/mL: < 39.5%
  inhibition at 80 µg/mL: 48.9%
  inhibition at 160 µg/mL: 96.1%
[3]; PGF2α 3 × 10^-8 M
  inhibition at 40 µg/mL: 95.1%
  inhibition at 80 µg/mL: 91.3%
  inhibition at 160 µg/mL: 100%
[3]; PGF2α 1 × 10^-6 M
  inhibition at 80 µg/mL: < 48.9%
  inhibition at 160 µg/mL: 96.1%
[3]; PGF2α 3 × 10^-6 M
  inhibition at 160 µg/mL: 86.8%
[3]; [4]
  inhibition of PGF2a induced contractions (in words): dose dependent
